# Data taken from patent publication US20260235604A1, “A NOVEL MARKER FOR CARDIOMYOCYTES DEDIFFERENTIATION” (National University of Singapore, priority 2023, published 2026).
# Columns and labels:
# Assay type in all cases: cell-based, mouse
# mTORC1 = test: Western blot of GLUL, p-S6K1, p-4EBP1 in cultured ACMs with Asns KD; settings: Asn treatment of D4 Asns^KD ACMs
# Procedure: Protein extraction was carried out using 6 M urea lysis buffer with 1 mM dithiothreitol, protease inhibitor and phosphatase inhibitor. For protein extraction from cultured ACMs and purified CMs, lysis buffer was added directly to the cells, followed by vigorous pipetting. For protein extraction from mouse heart apex, a piece of apex tissue resected from each mouse heart was weighted and submerged in 500 μL lysis buffer in a 2 mL Sarstedt tube. One single stainless-steel bead (diameter 5 mm) was added to each tube containing apex tissue in lysis buffer. The TissueLyser II was assembled as per manufacturer's guidelines with pre-chilled adapters. The apex tissue was homogenised for 20 s at 30 Hz for two rounds, until no visible tissue debris was observed. Protein quantification was done using Bio-Rad Protein Assay Kit I as per manufacturer's guidelines.
# The protein lysate with loading buffer was heated at 60° C. for 10 mins before loading onto a 10% SDS-polyacrylamide gel. After transfer, the blotting membrane was blocked in 5% blotting-grade blocker in TBST for 1 hour, followed by primary antibody incubation at 4° C. overnight and secondary antibody incubation at room temperature (R.T.) for 1 hour. The blot was detected by ECL substrate reaction and exposure on a ChemiDoc™ touch imaging system (BioRad). The quantification of protein expression level was performed using Fiji software. […]
# cultured ACMs [1] = test: RT-qPCR of cell cycle genes in cultured ACMs
# Procedure: For freshly isolated mouse CMs, a total number of about 120,000 CMs (⅛ of total CMs) per heart were lysed by 1 mL TRIzol™ Reagent. To lyse cultured CMs, 1 mL TRIzol™ Reagent was added to each well in 12-well and 6-well cell culture plates. Total RNA extraction was performed as per manufacturer's protocol.
# cDNA was synthesised with oligo dT and random primers using the qScript™ cDNA Synthesis Kit. qPCR was performed with PerfeCTa® Low Rox™ ToughMix™ (Quantabio) on a real-time PCR system. All qPCR data were normalised to the expression of housekeeping genes Gapdh and Rplp0.
# cultured ACMs [2] = test: Propidium iodide (PI) staining of cultured ACMs (CM death); settings: eliminating Asn in cultured ACMs
# Procedure: Purified CMs were either directly lysed for RNA and protein extraction, or pre-plated on uncoated cell culture dishes for 1 hour to further remove non-CMs before culture on laminin-coated cell culture plates. During the first two days of culturing (D0 and D1), 1 µM of blebbistatin (Sigma-Aldrich) was added as a specific myosin II inhibitor (see Kabaeva Z et al., 2008). Starting from D2, blebbistatin was removed to accelerate morphological changes of CMs. 10% FBS was included in the culture media during the whole culture procedure, and the small colonies of non-CMs were carefully scraped under a microscope and washed away daily. Images of CMs were captured using the EVOS® FL Cell Imaging System (Thermo Fisher) under different channels. PI (final concentration 1 μg/mL) and Hoechst (final concentration 1 μg/mL) was added at a to cultured ACMs, and incubated at 37° C. for 45 mins. The ACMs were immediately imaged by Nikon inverted microscope Eclipse Ti-E. For each well in the cell cultured dishes, 8 to 9 random regions were imaged. PI+ CMs were quantified using Fiji software.
molecule,measurement,setting,value
"NC(=O)C[C@H](N)C(=O)O [Asn, asparagine]",p-4EBP1,mTORC1,restored
same,p-S6K1,mTORC1,promoted
"L-asparaginase (protein, UniProt P00805 23-348, looked up) L-asparaginase 2: LPNITILATGGTIAGGGDSATKSNYTVGKVGVENLVNAVPQLKDIANVKGEQVVNIGSQDMNDNVWLTLAKKINTDCDKTDGFVITHGTDTMEETAYFLDLTVKCDKPVVMVGAMRPSTSMSADGPFNLYNAVVTAADKASANRGVLVVMNDTVLDGRDVTKTNTTDVATFKSVNYGPLGYIHNGKIDYQRTPARKHTSDTPFDVSKLNELPKVGIVYNYANASDLPAKALVDAGYDGIVSAGVGNGNLYKSVFDTLATAAKTGTAVVRSSRVPTGATTQDAEVDDAKYGFVASGTLNPQKARVLLQLALTQTKDPQQIQQIFNQY","expression of cell cycle genes (Cdk1, Mki67, Aukrb)",cultured ACMs [1],diminished
same,cell death,cultured ACMs [2],did not induce more cell death
